From US11312754B2, “Sunflower seed protein-derived peptides” (ACCESS BUSINESS GROUP INTERNATIONAL LLC, priority 2019, dated 2022)
≈ marks a conversion by molar mass, not a printed value. Where a SMILES comes first, the peptide text is derived from it. Where no end group is shown, it is not given here.

Tests used:
human recombinant renin = molecular target: T1, human recombinant renin (Homo sapiens, UniProt P00797); assay: Renin inhibition assay (Renin Inhibitor Screening Assay Kit); assay type: biochemical; details: individual isolated peptides, 1 mg/mL; read-out: % Inhibition ± SD of renin activity
T1 construct: purchased
T1 sequence (P00797 67-406): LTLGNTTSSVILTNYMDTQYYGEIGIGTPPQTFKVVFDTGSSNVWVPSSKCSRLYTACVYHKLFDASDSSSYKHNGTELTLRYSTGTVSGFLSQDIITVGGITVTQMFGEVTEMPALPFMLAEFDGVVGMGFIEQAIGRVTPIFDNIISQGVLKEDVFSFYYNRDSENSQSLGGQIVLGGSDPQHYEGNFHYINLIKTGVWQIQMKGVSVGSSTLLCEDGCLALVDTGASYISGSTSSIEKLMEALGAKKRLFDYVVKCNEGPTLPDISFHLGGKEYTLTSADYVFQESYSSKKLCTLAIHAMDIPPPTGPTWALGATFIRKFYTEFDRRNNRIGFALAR
Method: In vitro inhibitory activity of human recombinant renin is conducted using a Renin Inhibitor Screening Assay Kit. Samples (crude hydrolysate and the protein hydrolysate composition of Fraction 7 of Example 1) are diluted in Tris-HCl buffer (50 mM, pH 8.0, containing 100 mM NaCl) to a final concentration 0.5 mg/mL, and pre-warmed to 37° C. The reaction is initiated by adding renin (10 μL), shaking for 10 s to mix, and incubating at 37° C. for 15 min. Fluorescence intensity (FI) is then recorded at an excitation wavelength of 340 nm and an emission wavelength of 490 nm using a fluorometric microplate reader. The results of the assay are set forth in Table 3 below, expressed as percent inhibition. The procedure set forth above for Examples 18 & 19 is repeated at 1 mg/mL concentrations using samples containing one of the isolated peptides 1-4 of Fraction 7 of Example 1.

[1] = DPPH radical scavenging assay; details: individual isolated peptides
Method: The scavenging activity of crude hydrolysate and the protein hydrolysate composition of Fraction 7 against DPPH is determined by first dissolving samples (crude hydrolysate and the protein hydrolysate composition of Fraction 7 of Example 1) in 0.1 M sodium phosphate buffer, pH 7.0 containing 1% (w/v) Triton X-100. DPPH is dissolved in methanol to a final concentration of 100 μM, and mixed with the samples in the 96-well plate to a final assay concentration of 1 mg/mL. The samples are then incubated at room temperature in the dark for 30 min, and the absorbance read at 517 nm.
The procedure set forth about for Examples 10 & 11 is repeated using samples containing one of the isolated peptides 1-4 of Fraction 7 of Example 1.

ACE = ACE (Homo sapiens, UniProt P12821); assay: ACE inhibition assay (FAPGG substrate); assay type: biochemical; details: individual isolated peptides
ACE, sequence (P12821 30-1306, species assumed): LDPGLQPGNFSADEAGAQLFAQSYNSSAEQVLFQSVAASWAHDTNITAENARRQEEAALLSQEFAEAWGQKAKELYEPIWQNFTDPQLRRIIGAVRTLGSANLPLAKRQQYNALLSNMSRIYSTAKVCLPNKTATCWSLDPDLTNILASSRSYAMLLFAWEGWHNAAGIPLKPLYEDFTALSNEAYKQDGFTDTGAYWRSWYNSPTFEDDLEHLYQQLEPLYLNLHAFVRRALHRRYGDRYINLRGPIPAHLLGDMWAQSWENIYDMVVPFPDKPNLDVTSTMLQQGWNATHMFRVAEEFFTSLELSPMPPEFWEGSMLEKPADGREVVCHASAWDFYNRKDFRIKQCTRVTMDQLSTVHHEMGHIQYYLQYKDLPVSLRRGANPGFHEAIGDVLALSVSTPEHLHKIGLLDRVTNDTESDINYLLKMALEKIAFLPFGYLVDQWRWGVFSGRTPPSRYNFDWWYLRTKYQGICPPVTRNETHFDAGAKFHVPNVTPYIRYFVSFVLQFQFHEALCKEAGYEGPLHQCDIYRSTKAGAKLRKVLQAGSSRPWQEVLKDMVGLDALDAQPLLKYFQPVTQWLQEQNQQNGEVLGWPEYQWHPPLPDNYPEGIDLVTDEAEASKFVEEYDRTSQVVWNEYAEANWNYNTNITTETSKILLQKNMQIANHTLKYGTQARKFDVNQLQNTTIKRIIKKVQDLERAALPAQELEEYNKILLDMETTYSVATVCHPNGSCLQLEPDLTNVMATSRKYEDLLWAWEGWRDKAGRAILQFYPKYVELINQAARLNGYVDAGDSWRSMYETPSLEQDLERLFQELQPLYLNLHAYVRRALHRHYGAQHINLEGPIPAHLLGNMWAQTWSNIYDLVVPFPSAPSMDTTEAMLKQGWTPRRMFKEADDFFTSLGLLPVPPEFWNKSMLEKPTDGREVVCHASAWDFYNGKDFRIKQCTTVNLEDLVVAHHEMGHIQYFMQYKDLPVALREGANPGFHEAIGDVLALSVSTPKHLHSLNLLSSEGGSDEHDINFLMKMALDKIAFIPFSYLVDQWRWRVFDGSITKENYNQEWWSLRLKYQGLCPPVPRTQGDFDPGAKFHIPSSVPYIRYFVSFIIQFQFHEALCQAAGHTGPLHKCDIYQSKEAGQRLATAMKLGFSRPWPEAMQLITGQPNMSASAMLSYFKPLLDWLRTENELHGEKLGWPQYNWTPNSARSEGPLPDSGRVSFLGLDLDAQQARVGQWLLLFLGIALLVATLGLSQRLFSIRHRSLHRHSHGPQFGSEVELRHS
Method: The ability of sample to inhibit in vitro activity of ACE is determined by mixing 1 mL of FAPGG (0.5 mM, dissolved in buffer [50 mM Tris-HCl buffer containing 0.3 M NaCl, pH 7.5]) with 20 μL ACE (1 U/mL, final activity of 20 mU) and 200 μL sample (crude hydrolysate and the protein hydrolysate composition of Fraction 7 of Example 1, each dissolved in buffer to 1 mg/mL). The rate of decrease in absorbance at 345 nm is recorded for 2 min at room temperature. The results of the assay are set forth in Table 3 below, expressed as percent inhibition.
The procedure set forth above for Examples 16 & 17 is repeated using samples containing one of the isolated peptides 1-4 of Fraction 7 of Example 1.

[2] = Hydroxyl radical scavenging activity (HRSA) assay; details: individual isolated peptides
Method: The hydroxyl radical scavenging activity of crude hydrolysate and the protein hydrolysate composition of Fraction 7 is determined by dissolving samples (crude hydrolysate and the protein hydrolysate composition of Fraction 7 of Example 1) and 1,10-phenanthroline in 0.1 M sodium phosphate buffer (pH 7.4). FeSO4 (3 mM) and 0.01% hydrogen peroxide are separately dissolved in distilled water. An aliquot (50 μL) of samples (final assay concentration of 0.5 mg/mL) or buffer (control) is first added to a clear, flat bottom 96-well plate followed by additions of 50 μL of 1,10-phenanthroline and 50 μL of FeSO4. To initiate reaction in the wells, 50 μL of hydrogen peroxide (H2O2) solution is added to the mixture, which is then covered and incubated at 37° C. for 1 h with shaking. Absorbance is measured at 536 nm every 10 min for a period of 1 h.
The procedure set forth above for Examples 12 & 13 is repeated using samples containing one of the isolated peptides 1-4 of Fraction 7 of Example 1.

| Compound | inhibition at 1000 µg/mL (human recombinant renin) [%] | IC50 DPPH radical scavenging [1] [µg/mL] | IC50 (ACE) [µM] | IC50 hydrogen (hydroxyl) radical scavenging [2] [µg/mL] |
| --- | --- | --- | --- | --- |
| MVWGP [Peptide 3, Met-Val-Trp-Gly-Pro] | -46.4 ± 1.56 | 4690 ± 50 | 35.7 | 2500 ± 30 |
| TGSYTEGWS [Peptide 4, Thr-Gly-Ser-Tyr-Thr-Glu-Gly-Trp-Ser] | 107 ± 17.6 | 4260 ± 30 | 557 | 1840 ± 10 |
| SGRDP [Peptide 2, Ser-Gly-Arg-Asp-Pro] | -54.5 ± 1.48 | 28340 ± 380 | 961 | 1900 ± 80 |
| CC(C)[C@H](NC(=O)[C@H](Cc1ccccc1)NC(=O)[C@@H](N)Cc1ccc(O)cc1)C(=O)N1CCC[C@H]1C(=O)O [Peptide 1, Tyr-Phe-Val-Pro] (H-YFVP-OH; N-terminus and C-terminus assumed) | -40.5 ± 6.23 | 3850 ± 130 (≈ 7.34 mM) | 477 | 1930 ± 20 (≈ 3.68 mM) |
